Results published in patent US10883137B2, “Method to detect activity of a polymerase” (MAX-PLANCK-GESELLSCHAFT ZUR FÖRDERUNG DER WISSENSCHAFTEN …, priority 2015, dated 2021).

B1: TEFM: mitochondrial transcription elongation factor (TEFM, NP_078959.3) (protein, UniProt Q96QE5 36-360, looked up)
Transcription elongation …: KSTTPKKITPNVTFCDENAKEPENALDKLFSSEQQASILHVLNTASTKELEAFRLLRGRRSINIVEHRENFGPFQNLESLMNVPLFKYKSTVQVCNSILCPKTGREKRKSPENRFLRKLLKPDIERERLKAVNSIISIVFGTRRIAWAHLDRKLTVLDWQQSDRWSLMRGIYSSSVYLEEISSIISKMPKADFYVLEKTGLSIQNSSLFPILLHFHIMEAMLYALLNKTFAQDGQHQVLSMNRNAVGKHFELMIGDSRTSGKELVKQFLFDSILKADPRVFFPSDKIVHYRQMFLSTELQRVEELYDSLLQAIAFYELAVFDSQP

Key:
Assay type in all cases: biochemical
[1] = biological target: human POLRMT (mitochondrial DNA-directed RNA polymerase) (Homo sapiens, UniProt O00411); assay: Inhibitor activity determination, mitochondrial RNA-polymerase, 384-well dose-response format; details: for IC50: 384-well, 8-point dilution series, 200 μM to 5 μM, 500 μM dNTPs; for Hill slope: four-parameter non-linear regression fit; for res. activity at highest conc.: highest assay conc. 200 μM; for res. activity at highest conc. / res. activity at lowest conc.: relative to positive control; for res. activity at lowest conc.: lower limit of 5 μM
From the text: The assay protocol largely corresponds to the setup described in example 1 (Determination of activity of mitochondrial RNA-polymerase using the same initiator and probes than in example 1). For determination of the activity, however, the reaction mix always contains the nucleotide triphosphate mix, to enforce potential competition between inhibitor compound and substrate. Negative control samples are set up such that no template DNA (pUC-LSP) is included in the reaction mixture.
Pre-diluted protein samples are mixed with the dNTP-mixture in a reaction buffer, containing 10 mM TrisHCl pH 7.5, 10 mM MgCl2, 40 mM NaCl, 2 mM GSH, 0.01% (w/v) Tween-20 and 0.1 mg/mL BSA, to yield final assay concentrations of 7.5 nM (POLRMT), 90 nM (TFAM), 20 nM (TFB2M) and 500 μM (dNTPs). 5 μL of this mix are dispensed, depending on the chosen microtiter plate format, using multi-channel pipettes or a Thermo Multidrop® dispenser into the wells of a microtiter plate and incubated at room-temperature (RT) for 10 minutes.
Equal amounts of DMSO without any compound are added to positive control samples. An incubation step at RT for 10 minutes is applied to allow binding of compounds.
The enzymatic reaction is started by the addition of 5 μL of a mix of template DNA (pUC-LSP) in reaction buffer to a final concentration of 0.5 nM. The following mixing, incubation and detection steps correspond to the steps described in example 1.

[2] = biological target: T1, human mitochondrial DNA-polymerase (POLG) (Homo sapiens, UniProt P54098); assay: Inhibitor activity determination using human mitochondrial DNA-polymerase, 384-well dose-response format
T1 sequence (P54098 1-1239): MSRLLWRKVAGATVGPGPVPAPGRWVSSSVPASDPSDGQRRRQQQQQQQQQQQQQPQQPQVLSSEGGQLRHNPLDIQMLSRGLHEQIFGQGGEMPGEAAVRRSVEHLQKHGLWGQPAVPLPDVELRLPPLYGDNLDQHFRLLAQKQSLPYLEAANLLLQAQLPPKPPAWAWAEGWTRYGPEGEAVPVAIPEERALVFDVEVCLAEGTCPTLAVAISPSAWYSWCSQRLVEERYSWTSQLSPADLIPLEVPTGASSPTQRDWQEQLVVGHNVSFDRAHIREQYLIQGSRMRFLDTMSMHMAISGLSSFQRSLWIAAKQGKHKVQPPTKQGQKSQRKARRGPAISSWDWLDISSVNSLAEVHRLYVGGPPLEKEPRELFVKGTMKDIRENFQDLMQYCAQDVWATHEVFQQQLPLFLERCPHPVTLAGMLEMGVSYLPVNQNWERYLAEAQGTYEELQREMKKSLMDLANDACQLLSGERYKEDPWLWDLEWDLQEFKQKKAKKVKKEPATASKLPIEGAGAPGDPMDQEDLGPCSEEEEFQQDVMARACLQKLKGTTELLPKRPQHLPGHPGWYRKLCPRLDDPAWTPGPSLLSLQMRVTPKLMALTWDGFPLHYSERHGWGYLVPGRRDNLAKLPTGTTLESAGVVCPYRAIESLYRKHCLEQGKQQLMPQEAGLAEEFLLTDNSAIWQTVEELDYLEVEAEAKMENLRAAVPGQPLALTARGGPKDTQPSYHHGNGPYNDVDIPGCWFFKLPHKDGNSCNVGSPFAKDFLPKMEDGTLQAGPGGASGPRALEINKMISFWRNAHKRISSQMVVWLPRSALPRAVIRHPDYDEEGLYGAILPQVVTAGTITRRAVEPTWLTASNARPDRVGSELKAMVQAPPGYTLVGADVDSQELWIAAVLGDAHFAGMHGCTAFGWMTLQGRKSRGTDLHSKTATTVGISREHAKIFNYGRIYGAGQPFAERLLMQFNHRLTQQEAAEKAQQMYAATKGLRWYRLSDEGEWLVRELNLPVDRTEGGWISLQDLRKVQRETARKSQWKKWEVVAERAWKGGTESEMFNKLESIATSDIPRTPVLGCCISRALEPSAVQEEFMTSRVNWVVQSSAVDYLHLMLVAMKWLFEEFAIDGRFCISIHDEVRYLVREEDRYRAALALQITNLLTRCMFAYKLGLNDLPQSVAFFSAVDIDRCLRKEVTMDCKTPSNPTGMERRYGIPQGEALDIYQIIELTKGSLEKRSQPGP
T1 sequence (Q9UHN1 1-485 partner): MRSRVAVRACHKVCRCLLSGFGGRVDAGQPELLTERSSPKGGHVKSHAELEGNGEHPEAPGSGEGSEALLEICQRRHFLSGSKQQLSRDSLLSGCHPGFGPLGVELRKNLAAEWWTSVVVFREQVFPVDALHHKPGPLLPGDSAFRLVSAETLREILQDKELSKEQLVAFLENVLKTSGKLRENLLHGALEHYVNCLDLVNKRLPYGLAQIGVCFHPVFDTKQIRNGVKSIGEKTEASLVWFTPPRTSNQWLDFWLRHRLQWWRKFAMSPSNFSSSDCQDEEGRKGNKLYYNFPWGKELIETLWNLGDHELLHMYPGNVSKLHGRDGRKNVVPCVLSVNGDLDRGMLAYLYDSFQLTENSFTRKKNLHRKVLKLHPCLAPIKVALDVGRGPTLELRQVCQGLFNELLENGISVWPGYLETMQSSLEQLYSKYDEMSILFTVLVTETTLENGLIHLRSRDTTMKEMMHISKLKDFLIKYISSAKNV
From the text: The assay protocol largely corresponds to the setup described in example 1 (Determination of activity of mitochondrial RNA-polymerase using the same initiator and probes than in example 1). For determination of the activity of the mitochondrial replication, however, the two-subunit complex of the mitochondrial DNA-polymerase (POLG, NM_002693.2, NM_007215.3), the […] TWINKLE (NM_021830.4) and mitochondrial single-strand binding protein (SSBP1, NM_001256510.1) are used. Also, the reaction mix always contains the substrate nucleotide mix, to enforce potential competition between inhibitor compound and substrate.
For DNA-replication the template is generated using a circular, single-stranded DNA formed from pBlueskript SK+. To this circular, ssDNA, a primer with 42-nucleotide poly-T is annealed to form a fork structure. To make dsDNA, the primer is elongated with KOD polymerase, which synthesizes DNA around the entire circle, until again it reaches the primer. At this point DNA-synthesis stops and a double-stranded DNA template of about 3000 bp with an artificial replication fork is formed.
For activity determination, negative control samples are set up such that no template DNA is included in the assay mixture. Assay components are mixed in a buffer containing 25 mM TrisHCl pH 8.0, 5 mM MgCl2, 2 mM GSH, and 0.1 mg/mL BSA, to yield final assay concentrations of 30 nM POLG, 15 nM TWINKLE, 20 nM SSBP1, 250 μM dNTPs, 4 mM ATP as well as the two DNA-probes at 3 nM concentration each.
5 μL of this mix are dispensed, depending on the chosen microtiter plate format, using multi-channel pipettes or a Thermo Multidrop® dispenser into the wells of a microtiter plate and incubated at room-temperature (RT) for 10 minutes.
Chemical compounds under scrutiny in the assay are applied using contact-free acoustic droplet-dispensing (Labcyte Echo®) from 10 mM compound stocks (in 100% DMSO) in an appropriate 8-point dilution series to ensure accurate fitting of the resulting activity data (i.e. upper and lower asymptote reached). Equal amounts of DMSO without any compound are added to positive control samples. An incubation step at RT for 10 minutes is applied to allow binding of compounds.
The enzymatic reaction is started by the addition of 5 μL of a mix template DNA in reaction buffer to a final concentration of 5 nM. Following incubation for 1 h at 37° C., the reaction is stopped by addition of a detection mix, containing 3 nM streptavidin-coupled Eu-cryptate pre-incubated with an excess of an unspecific random oligonucleotide, in 20 mM Tris-HCl pH 8.0, 400 mM NaCl and 50 mM EDTA. HTRF-signals are measured following over-night incubation at room-temperature. […]

[3] = biological target: mitochondrial RNA-polymerase (POLRMT) (Homo sapiens, UniProt O00411); assay: Activity of mitochondrial RNA-polymerase with and without TEFM (in vitro transcription, FRET detection); details: TEFM 100 nM; product formation quenched after 2 h
Protocol: FIG. 8: is displaying the result of a comparative study of the effect of adding TEFM to the in vitro transcription reaction, as described in example 6. Two transcription reactions were set up either with or without the addition of TEFM (100 nM) and product formation quenched after 2 h. The specific FRET signal of the reaction without TEFM was used as a reference and normalized to 100%, while for the reaction including TEFM a signal increase of around 18% (±10%) was measured under the chosen conditions.
To enhance the enzymatic turnover and, thus, specific signal intensity of the mitochondrial in vitro transcription reaction, the mitochondrial transcription elongation factor (TEFM, NP_078959.3.) can be added to the assay reagent mixture.
The general workflow of the assay and composition of assay reagents are described in Posse et al (Nucl. Acids Res. 2015). A linearized pUC18 plasmid comprising the human mitochondrial light-strand promotor sequence (LSP) is used as transcription plasmid.
Adaptations made to the original protocol relate to the different detection method applied and correspond to the set-up described in example 1.

human POLRMT (mitochondrial DNA-directed RNA polymerase), sequence (O00411 42-1230): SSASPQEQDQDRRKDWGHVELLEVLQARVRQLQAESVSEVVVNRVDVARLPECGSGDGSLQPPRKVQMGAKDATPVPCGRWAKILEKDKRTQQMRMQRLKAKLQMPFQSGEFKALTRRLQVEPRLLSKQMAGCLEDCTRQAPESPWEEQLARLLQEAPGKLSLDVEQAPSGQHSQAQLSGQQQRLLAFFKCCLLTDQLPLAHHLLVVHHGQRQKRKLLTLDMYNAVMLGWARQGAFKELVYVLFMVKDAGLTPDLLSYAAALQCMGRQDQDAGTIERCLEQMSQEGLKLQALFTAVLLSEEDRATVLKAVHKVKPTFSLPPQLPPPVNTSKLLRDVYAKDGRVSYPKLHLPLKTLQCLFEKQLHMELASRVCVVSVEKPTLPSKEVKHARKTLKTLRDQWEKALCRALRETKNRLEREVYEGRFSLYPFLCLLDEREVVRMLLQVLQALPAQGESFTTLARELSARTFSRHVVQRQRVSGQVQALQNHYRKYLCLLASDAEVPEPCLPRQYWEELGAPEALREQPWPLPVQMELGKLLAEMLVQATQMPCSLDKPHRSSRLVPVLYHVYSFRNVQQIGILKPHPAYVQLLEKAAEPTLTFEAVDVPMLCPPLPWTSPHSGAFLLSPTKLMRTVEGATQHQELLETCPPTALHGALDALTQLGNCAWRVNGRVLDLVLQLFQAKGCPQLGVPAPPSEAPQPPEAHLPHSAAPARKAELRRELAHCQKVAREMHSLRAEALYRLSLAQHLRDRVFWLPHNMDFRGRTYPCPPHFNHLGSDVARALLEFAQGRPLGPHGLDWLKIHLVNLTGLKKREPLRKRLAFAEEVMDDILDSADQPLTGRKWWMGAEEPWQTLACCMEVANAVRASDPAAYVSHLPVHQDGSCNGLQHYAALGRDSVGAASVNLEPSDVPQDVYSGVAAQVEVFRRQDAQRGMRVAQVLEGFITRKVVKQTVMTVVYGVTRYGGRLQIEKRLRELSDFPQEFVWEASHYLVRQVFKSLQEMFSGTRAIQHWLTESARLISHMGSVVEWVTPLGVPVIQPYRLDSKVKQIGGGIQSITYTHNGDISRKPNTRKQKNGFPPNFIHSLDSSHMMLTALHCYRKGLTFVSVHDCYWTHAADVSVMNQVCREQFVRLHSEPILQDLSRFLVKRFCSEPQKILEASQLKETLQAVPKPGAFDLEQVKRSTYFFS
mitochondrial RNA-polymerase (POLRMT), sequence (O00411 42-1230): as above

| Molecule | IC50 [1] [µM] | Hill slope [1] | res. activity at highest conc. [1] [%] | res. activity at lowest conc. [1] [%] | IC50 ([2]; 384-well, 200 μM to 5 μM, 250 μM dNTPs) [µM] | Hill slope ([2]; four-parameter non-linear regression fit) | res. activity at highest conc. ([2]; highest assay conc. 200 μM) [%] | res. activity at lowest conc. ([2]; lower limit of 5 μM) [%] | signal increase of specific FRET signal versus reaction without TEFM (100%) [3] |
| --- | --- | --- | --- | --- | --- | --- | --- | --- | --- |
| 2′methyl/OH-O-UTP | 84.5 | −0.85 | 8.6 | 102 | – | – | – | – | – |
| C[C@@]1(F)[C@H](O)[C@@H](COP(=O)(O)OP(=O)(O)OP(=O)(O)O)O[C@H]1n1cnc2c(=O)[nH]c(N)nc21 [2′methyl/F-GTP] | 73.4 | −2.15 | 46.9 | 88.32 | – | – | – | – | – |
| Cc1cn([C@H]2C[C@H](O)[C@@H](COP(=O)(O)OP(=O)(O)OP(=O)(O)O)O2)c(=O)[nH]c1=S [4-Thiothymidine-5′-Triphosphate] | – | – | – | – | 54.1 | −0.9462 | 22.6 | 92.79 | – |
| C[C@@]1(O)[C@H](O)[C@@H](COP(=O)(O)OP(=O)(O)OP(=O)(O)O)O[C@H]1n1cnc2c(=O)[nH]c(N)nc21 [2′methyl/OH-GTP] | – | −2.05 | 65.5 | 96.5 | – | – | – | – | – |
| B1 | – | – | – | – | – | – | – | – | around 18% |
